# Measured values from patent US9944624B2, “Substituted amino triazoles useful as human chitinase inhibitors” (OncoArendi Therapeutics S.A., priority 2015, dated 2018).
# Key:
# recombinant human AMCase = recombinant human AMCase (Homo sapiens (Human), UniProt Q9BZP6); test: Human AMCase activity assay (fluorescent 4MU substrate); type: biochemical; conditions: citrate buffer pH 5.2, 37° C., 60 minutes; substrate 4-methylumbelliferyl B-D-N,N′-diacetylchitobioside hydrate; read-out: Activity on hAMCase, IC50
# recombinant human CHIT1 = recombinant human CHIT1 (Homo sapiens (Human), UniProt Q13231); test: Human CHIT1 activity assay (fluorescent 4MU substrate); type: biochemical; conditions: citrate buffer pH 5.2, 37° C., 60 minutes; substrate 4-methylumbelliferyl β-D-N,N′,N″-triacetylchitotriose; read-out: Activity on hCHIT1, IC50
# Sequence of recombinant human CHIT1 (Q13231 22-466): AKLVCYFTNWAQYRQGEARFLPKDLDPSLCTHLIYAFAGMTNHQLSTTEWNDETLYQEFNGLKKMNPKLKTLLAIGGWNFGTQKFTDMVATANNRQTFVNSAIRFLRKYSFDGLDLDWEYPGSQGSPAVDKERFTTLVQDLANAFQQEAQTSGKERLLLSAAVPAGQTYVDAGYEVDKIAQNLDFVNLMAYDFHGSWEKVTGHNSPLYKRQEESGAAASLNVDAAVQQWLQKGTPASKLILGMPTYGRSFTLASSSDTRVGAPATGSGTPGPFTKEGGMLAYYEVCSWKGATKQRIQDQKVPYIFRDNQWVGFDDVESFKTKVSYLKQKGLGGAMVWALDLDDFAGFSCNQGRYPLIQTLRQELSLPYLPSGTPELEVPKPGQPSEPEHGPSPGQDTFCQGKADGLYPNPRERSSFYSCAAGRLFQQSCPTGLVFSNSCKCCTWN
# Sequence of recombinant human AMCase (Q9BZP6 22-476): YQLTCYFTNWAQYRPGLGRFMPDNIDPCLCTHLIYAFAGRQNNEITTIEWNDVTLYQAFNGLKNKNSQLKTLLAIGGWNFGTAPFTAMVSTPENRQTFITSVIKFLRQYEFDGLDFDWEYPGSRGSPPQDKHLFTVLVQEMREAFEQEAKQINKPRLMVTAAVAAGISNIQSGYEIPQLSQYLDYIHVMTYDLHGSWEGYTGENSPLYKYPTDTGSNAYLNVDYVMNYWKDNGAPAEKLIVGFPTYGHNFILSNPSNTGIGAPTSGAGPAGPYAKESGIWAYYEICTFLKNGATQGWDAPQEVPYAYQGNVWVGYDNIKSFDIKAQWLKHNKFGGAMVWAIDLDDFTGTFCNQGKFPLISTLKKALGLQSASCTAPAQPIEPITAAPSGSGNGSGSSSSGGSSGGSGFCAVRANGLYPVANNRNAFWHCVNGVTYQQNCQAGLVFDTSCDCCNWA
IC50 (recombinant human AMCase),IC50 (recombinant human CHIT1),Compound
< 0.1 µM,,"Nc1nnc(N2CCC(N3CCOC[C@@H]3Cc3ccc(Cl)cc3)CC2)[nH]1 [Example 1, (S)-5-(4-(3-(4-chlorobenzyl)morpholino)piperidin-1-yl)-4H-1,2,4-triazol-3-amine]"
,0.1 to 1 µM,"Nc1nnc(N2CCC(N3CCOCC3Cc3ccc(Cl)cc3)CC2)[nH]1 (centres unmarked) [Example 2, 5-(4-(3-(4-chlorobenzyl)morpholino)piperidin-1-yl)-4H-1,2,4-triazol-3-amine]"
< 0.1 µM,,"Nc1nnc(N2CCC(N3CCOC[C@@H]3Cc3ccc(Br)cc3)CC2)[nH]1 [Example 3, (S)-5-(4-(3-(4-bromobenzyl)morpholino)piperidin-1-yl)-4H-1,2,4-triazol-3-amine]"
< 0.1 µM,,"CCOC[C@H]1CN(C2CCN(c3nnc(N)[nH]3)CC2)[C@@H](Cc2ccc(Cl)cc2)CO1 [Example 11, 5-(4-((2R,5S)-5-(4-chlorobenzyl)-2-(ethoxymethyl)morpholino)piperidin-1-yl)-4H-1,2,4-triazol-3-amine]"
< 0.1 µM,,"COC(C)(C)[C@H]1CN(C2CCN(c3nnc(N)[nH]3)CC2)[C@@H](Cc2ccc(Cl)cc2)CO1 [Example 14, 5-(4-((2R,5S)-5-(4-chlorobenzyl)-2-(2-methoxypropan-2-yl)morpholino)piperidin-1-yl)-4H-1,2,4-triazol-3-amine]"
< 0.1 µM,,"Nc1nnc(N2CCC(N3CCCC[C@@H]3Cc3ccc(Cl)cc3)CC2)[nH]1 [Example 15, (R)-5-(2-(4-chlorobenzyl)-[1,4′-bipiperidin]-1′-yl)-4H-1,2,4-triazol-3-amine]"
< 0.1 µM,,"CCOC(=O)C1CC[C@H](Cc2ccc(Cl)cc2)N(C2CCN(c3nnc(N)[nH]3)CC2)C1 (stereo partly drawn) [Example 16, ethyl (6R)-1′-(5-amino-4H-1,2,4-triazol-3-yl)-6-(4-chlorobenzyl)-[1,4′-bipiperidine]-3-carboxylate]"
< 0.1 µM,,"Nc1nnc(N2CCC(N3CC(C(=O)O)CC[C@@H]3Cc3ccc(Cl)cc3)CC2)[nH]1 (stereo partly drawn) [Example 17, (6R)-1′-(5-amino-4H-1,2,4-triazol-3-yl)-6-(4-chlorobenzyl)-[1,4′-bipiperidine]-3-carboxylic acid]"
< 0.1 µM,,"CC1(C(=O)O)CC[C@H](Cc2ccc(Cl)cc2)N(C2CCN(c3nnc(N)[nH]3)CC2)C1 (stereo partly drawn) [Example 18, (6R)-1′-(5-amino-4H-1,2,4-triazol-3-yl)-6-(4-chlorobenzyl)-3-methyl-[1,4′-bipiperidine]-3-carboxylic acid]"
,10 to 100 µM,"Nc1nnc(N2CCC(N3CCCCC3C(O)c3ccc(Cl)cc3)CC2)[nH]1 (centres unmarked) [Example 21, (1′-(5-amino-4H-1,2,4-triazol-3-yl)-[1,4′-bipiperidin]-2-yl)(4-chlorophenyl)methanol]"
,0.1 to 1 µM,"CO[C@H]1CN(C2CCN(c3nnc(N)[nH]3)CC2)[C@H]1Cc1ccc(Cl)cc1 [Example 22, 5-(4-((2S,3S)-2-(4-chlorobenzyl)-3-methoxyazetidin-1-yl)piperidin-1-yl)-4H-1,2,4-triazol-3-amine]"
,10 to 100 µM,"Nc1nnc(N2CCC(N3C[C@@H](F)[C@@H]3Cc3ccc(Cl)cc3)CC2)[nH]1 [Example 23, 5-(4-((2S,3R)-2-(4-chlorobenzyl)-3-fluoroazetidin-1-yl)piperidin-1-yl)-4H-1,2,4-triazol-3-amine]"
,1 to 10 µM,"Nc1nnc(N2CCC(N3CCNC[C@@H]3Cc3ccc(Cl)cc3)CC2)[nH]1 [Example 26, (S)-5-(4-(2-(4-chlorobenzyl)piperazin-1-yl)piperidin-1-yl)-4H-1,2,4-triazol-3-amine]"
,1 to 10 µM,"C[C@H]1CN(C2CCN(c3nnc(N)[nH]3)CC2)[C@@H](Cc2ccc(Cl)cc2)CN1C [Example 27, 5-(4-((2S,5S)-2-(4-chlorobenzyl)-4,5-dimethylpiperazin-1-yl)piperidin-1-yl)-4H-1,2,4-triazol-3-amine]"
,10 to 100 µM,"CC(C)CN1CCN(C2CCN(c3nnc(N)[nH]3)CC2)[C@@H](Cc2ccc(Cl)cc2)C1 [Example 29, (S)-5-(4-(2-(4-chlorobenzyl)-4-isobutylpiperazin-1-yl)piperidin-1-yl)-4H-1,2,4-triazol-3-amine]"
< 0.1 µM,1 to 10 µM,"CN1C[C@H](Cc2ccc(Cl)cc2)N(C2CCN(c3nnc(N)[nH]3)CC2)C[C@@H]1Cc1ccc(Cl)cc1 [Example 31, 5-(4-((2S,5S)-2,5-bis(4-chlorobenzyl)-4-methylpiperazin-1-yl)piperidin-1-yl)-4H-1,2,4-triazol-3-amine]"
< 0.1 µM,1 to 10 µM,"CN1C[C@H](Cc2ccc(Cl)cc2)N(C2CCN(c3nnc(N)[nH]3)CC2)C[C@@H]1CC1CCCCC1 [Example 32, 5-(4-((2S,5S)-2-(4-chlorobenzyl)-5-(cyclohexylmethyl)-4-methylpiperazin-1-yl)piperidin-1-yl)-4H-1,2,4-triazol-3-amine]"
< 0.1 µM,1 to 10 µM,"CC(C)C[C@H]1CN(C2CCN(c3nnc(N)[nH]3)CC2)[C@@H](Cc2ccc(Cl)cc2)CN1C [Example 33, 5-(4-((2S,5S)-2-(4-chlorobenzyl)-5-isobutyl-4-methylpiperazin-1-yl)piperidin-1-yl)-4H-1,2,4-triazol-3-amine]"
< 0.1 µM,,"COC(=O)CN1C[C@H](Cc2ccc(Cl)cc2)N(C2CCN(c3nnc(N)[nH]3)CC2)C[C@@H]1C [Example 40, methyl 2-((2S,5S)-4-(1-(5-amino-4H-1,2,4-triazol-3-yl)piperidin-4-yl)-5-(4-chlorobenzyl)-2-methylpiperazin-1-yl)acetate]"
< 0.1 µM,,"C[C@H]1CN(C2CCN(c3nnc(N)[nH]3)CC2)[C@@H](Cc2ccc(Cl)cc2)CN1CC(=O)O [Example 41, 2-((2S,5S)-4-(1-(5-amino-4H-1,2,4-triazol-3-yl)piperidin-4-yl)-5-(4-chlorobenzyl)-2-methylpiperazin-1-yl)acetic acid]"
< 0.1 µM,0.1 to 1 µM,"CC1(O)C[C@H](Cc2ccc(Cl)cc2)N(C2CCN(c3nnc(N)[nH]3)CC2)C1 (stereo partly drawn) [Example 48, (5S)-1-(1-(5-amino-4H-1,2,4-triazol-3-yl)piperidin-4-yl)-5-(4-chlorobenzyl)-3-methylpyrrolidin-3-ol]"
< 0.1 µM,,"Nc1nnc(N2CCC(N3C[C@@H]4CCCN4C[C@@H]3Cc3ccc(Cl)cc3)CC2)[nH]1 [Example 49, 5-(4-((3S,8aS)-3-(4-chlorobenzyl)hexahydropyrrolo[1,2-a]pyrazin-2(1H)-yl)piperidin-1-yl)-4H-1,2,4-triazol-3-amine]"
< 0.1 µM,0.1 to 1 µM,"C=C1COC[C@H](Cc2ccc(Cl)cc2)N(C2CCN(c3nnc(N)[nH]3)CC2)C1 [Example 55, (S)-5-(4-(3-(4-chlorobenzyl)-6-methylene-1,4-oxazepan-4-yl)piperidin-1-yl)-4H-1,2,4-triazol-3-amine]"
< 0.1 µM,0.1 to 1 µM,"CN1C[C@H](Cc2ccc(Cl)cc2)N(C2CCN(c3nnc(N)[nH]3)CC2)Cc2ccccc21 [Example 57, (S)-5-(4-(3-(4-chlorobenzyl)-1-methyl-2,3-dihydro-1H-benzo[e][1,4]diazepin-4(5H)-yl)piperidin-1-yl)-4H-1,2,4-triazol-3-amine]"
< 0.1 µM,0.1 to 1 µM,"Nc1nnc(N2CCC(N3Cc4cc(F)ccc4OC[C@@H]3Cc3ccc(Cl)cc3)CC2)[nH]1 [Example 60, (S)-5-(4-(3-(4-chlorobenzyl)-7-fluoro-2,3-dihydrobenzo[f][1,4]oxazepin-4(5H)-yl)piperidin-1-yl)-4H-1,2,4-triazol-3-amine]"
< 0.1 µM,1 to 10 µM,"Nc1nnc(N2CCC(N3Cc4cc(Cl)ccc4OC[C@@H]3Cc3ccc(Cl)cc3)CC2)[nH]1 [Example 61, (S)-5-(4-(7-chloro-3-(4-chlorobenzyl)-2,3-dihydrobenzo[f][1,4]oxazepin-4(5H)-yl)piperidin-1-yl)-4H-1,2,4-triazol-3-amine]"
< 0.1 µM,10 to 100 µM,"Nc1nnc(N2CCC(N3Cc4cc(Cl)cc(Cl)c4OC[C@@H]3Cc3ccc(Cl)cc3)CC2)[nH]1 [Example 62, (S)-5-(4-(7,9-dichloro-3-(4-chlorobenzyl)-2,3-dihydrobenzo[f][1,4]oxazepin-4(5H)-yl)piperidin-1-yl)-4H-1,2,4-triazol-3-amine]"

Compound,IC50 (recombinant human AMCase),IC50 (recombinant human CHIT1)
"CO[C@H]1C[C@H](Cc2ccc(Cl)cc2)N(C2CCN(c3nnc(N)[nH]3)CC2)C1 [Example 46, 5-(4-((2S,4S)-2-(4-chlorobenzyl)-4-methoxypyrrolidin-1-yl)piperidin-1-yl)-4H-1,2,4-triazol-3-amine]",,< 0.1 µM
"CO[C@@H]1C[C@H](Cc2ccc(Cl)cc2)N(C2CCN(c3n[nH]c(N)n3)CC2)C1 [Example 51, 3-(4-((2S,4R)-2-(4-chlorobenzyl)-4-methoxypyrrolidin-1-yl)piperidin-1-yl)-1H-1,2,4-triazol-5-amine]",,< 0.1 µM
"CN1C[C@H](Cc2ccc(Cl)cc2)N(C2CCN(c3nnc(N)[nH]3)CC2)Cc2cc(Cl)ccc21 [Example 58, (S)-5-(4-(7-chloro-3-(4-chlorobenzyl)-1-methyl-2,3-dihydro-1H-benzo[e][1,4]diazepin-4(5H)-yl)piperidin-1-yl)-4H-1,2,4-triazol-3-amine]",< 0.1 µM,0.1 to 1 µM
"Nc1nnc(N2CCC(N3Cc4ccccc4OC[C@@H]3Cc3ccc(Cl)cc3)CC2)[nH]1 [Example 59, (S)-5-(4-(3-(4-chlorobenzyl)-2,3-dihydrobenzo[f][1,4]oxazepin-4(5H)-yl)piperidin-1-yl)-4H-1,2,4-triazol-3-amine]",< 0.1 µM,0.1 to 1 µM
"Nc1nnc(N2CCC(N3Cc4ccncc4OC[C@@H]3Cc3ccc(Cl)cc3)CC2)[nH]1 [Example 63, (S)-5-(4-(3-(4-chlorobenzyl)-2,3-dihydropyrido[4,3-f][1,4]oxazepin-4(5H)-yl)piperidin-1-yl)-4H-1,2,4-triazol-3-amine]",< 0.1 µM,1 to 10 µM
